This is an account of results in PubChem BioAssay AID1259407 (Chemical Carcinogenesis Research Information System (CCRIS), 2018).

Calls of active or inactive are those of the source. No rule for the calls is given here.

The data set has as its system CCRIS mutagenicity, Ames/micronucleus/aberration tests. The data set can be described thus: CCRIS mutagenicity studies.
Where [1] appears, read: Test System: AMES SALMONELLA TYPHIMURIUM, Strain/Indicator: TA98, Metabolic Activation: NONE, Method: PREINCUBATION
Setting [2] is: Test System: AMES SALMONELLA TYPHIMURIUM, Strain/Indicator: TA98, Metabolic Activation: NONE, Method: STANDARD PLATE.
Where [3] appears, read: Test System: AMES SALMONELLA TYPHIMURIUM, Strain/Indicator: TA98, Metabolic Activation: RAT, LIVER, S-9, AROCLOR 1254, Method: PREINCUBATION
[4] abbreviates: Test System: AMES SALMONELLA TYPHIMURIUM, Strain/Indicator: TA100, Metabolic Activation: NONE, Method: PREINCUBATION
Setting [5] is: Test System: AMES SALMONELLA TYPHIMURIUM, Strain/Indicator: TA100, Metabolic Activation: NONE, Method: STANDARD PLATE.
[6] abbreviates: Test System: AMES SALMONELLA TYPHIMURIUM, Strain/Indicator: TA1535, Metabolic Activation: NONE, Method: PREINCUBATION
The mark [7] stands for this setting: Test System: AMES SALMONELLA TYPHIMURIUM, Strain/Indicator: TA1535, Metabolic Activation: RAT, LIVER, S-9, AROCLOR 1254, Method: PREINCUBATION

On to `Oc1cccc(O)c1O`, for which the mutagenic call (End Point: IN VITRO CHROMOSOMAL ABERRATIONS, Test System: V79 CELLS, Metabolic Activation: NONE) was “active; positive; active at higher levels at all ph values”; the mutagenic call (Test System: AMES SALMONELLA TYPHIMURIUM, Strain/Indicator: TA97, Metabolic Activation: NONE, Method: PREINCUBATION) is “active; positive”; the mutagenic call (Test System: AMES SALMONELLA TYPHIMURIUM, Strain/Indicator: TA97, Metabolic Activation: RAT, LIVER, S-9, PHENOBARBITAL, Method: PREINCUBATION) is “active; positive”; the mutagenic call (Test System: AMES SALMONELLA TYPHIMURIUM, Strain/Indicator: TA98, Metabolic Activation: NONE) was “inactive; negative”; the mutagenic call under setting [1] was “inactive; negative”; the mutagenic call under setting [2] is “inactive; negative”. Further, the mutagenic call reads like this: under setting [3], “inactive; negative”; (Test System: AMES SALMONELLA TYPHIMURIUM, Strain/Indicator: TA98, Metabolic Activation: RAT, LIVER, S-9, PHENOBARBITAL, Method: PREINCUBATION) “active; positive”; (Test System: AMES SALMONELLA TYPHIMURIUM, Strain/Indicator: TA98, Metabolic Activation: S-9) “inactive; negative”; (Test System: AMES SALMONELLA TYPHIMURIUM, Strain/Indicator: TA98, Metabolic Activation: S-9, Method: STANDARD PLATE) “active; positive”; under setting [4], “active; positive”; under setting [5], “inactive; negative”. Further, the mutagenic call (Test System: AMES SALMONELLA TYPHIMURIUM, Strain/Indicator: TA100, Metabolic Activation: RAT, LIVER, S-9, PHENOBARBITAL, Method: PREINCUBATION) is “active; positive”; the mutagenic call (Test System: AMES SALMONELLA TYPHIMURIUM, Strain/Indicator: TA100, Metabolic Activation: S-9, Method: STANDARD PLATE) is “active; positive”; the mutagenic call (Test System: AMES SALMONELLA TYPHIMURIUM, Strain/Indicator: TA102, Metabolic Activation: NONE, Method: STANDARD PLATE) was “active; positive”; the mutagenic call (Test System: AMES SALMONELLA TYPHIMURIUM, Strain/Indicator: TA102, Metabolic Activation: RAT, LIVER, S-9, AROCLOR 1254, Method: PREINCUBATION) was “inactive; negative”; the mutagenic call under setting [6] was “inactive; negative”; the mutagenic call under setting [7] is “inactive; negative”. Further, the mutagenic call (Test System: AMES SALMONELLA TYPHIMURIUM, Strain/Indicator: TA2638, Metabolic Activation: NONE, Method: STANDARD PLATE) was “active; positive”; the mutagenic call (Test System: E. COLI, Strain/Indicator: WP2 (PKM101), Metabolic Activation: NONE, Method: STANDARD PLATE) was “active; positive”; the mutagenic call (Test System: E. COLI, Strain/Indicator: WP2 UVRA (PKM101), Metabolic Activation: NONE, Method: STANDARD PLATE) was “active; positive”.
On to `CC(=O)ON(C(C)=O)c1ccc(Sc2ccccc2)cc1`, for which the mutagenic call is “active; positive” (Test System: AMES SALMONELLA TYPHIMURIUM, Strain/Indicator: TA98(1,8-DNP6), Metabolic Activation: NONE, Method: STANDARD PLATE); “active; positive” under setting [2]; “active; positive” (Test System: AMES SALMONELLA TYPHIMURIUM, Strain/Indicator: TA98, Metabolic Activation: RAT, LIVER, S-9, AROCLOR 1254, Method: STANDARD PLATE).
Consider `CC(=O)Nc1ccc(Oc2ccccc2)cc1`, for which the mutagenic call was “inactive; negative” under setting [5] and “active; positive” (Test System: AMES SALMONELLA TYPHIMURIUM, Strain/Indicator: TA100, Metabolic Activation: RAT, LIVER, S-9, KANECLOR 500, Method: STANDARD PLATE).
Regarding `NC(=O)/C=C/c1ccc([N+](=O)[O-])o1`, the mutagenic call by setting is: under setting [1], “active; positive”; (Test System: UDS HUMAN FIBROBLASTS, Strain/Indicator: THY INCORP (NON-S-PHASE), Metabolic Activation: NONE, Method: AUTORADIOGRAPHY) “active; positive”.
For `Brc1ccc(-c2ccccc2)cc1`, the mutagenic call is, setting by setting: (Test System: AMES SALMONELLA TYPHIMURIUM, Strain/Indicator: TA98, Metabolic Activation: HAMSTER, LIVER, S-9, AROCLOR 1254, Method: PREINCUBATION) “inactive; negative”; under setting [1], “inactive; negative”; under setting [3], “inactive; negative”; (Test System: AMES SALMONELLA TYPHIMURIUM, Strain/Indicator: TA100, Metabolic Activation: HAMSTER, LIVER, S-9, AROCLOR 1254, Method: PREINCUBATION) “inactive; negative”; under setting [4], “inactive; negative”; (Test System: AMES SALMONELLA TYPHIMURIUM, Strain/Indicator: TA100, Metabolic Activation: RAT, LIVER, S-9, AROCLOR 1254, Method: PREINCUBATION) “inactive; negative”. The mutagenic call was “inactive; negative” (Test System: AMES SALMONELLA TYPHIMURIUM, Strain/Indicator: TA1535, Metabolic Activation: HAMSTER, LIVER, S-9, AROCLOR 1254, Method: PREINCUBATION); “inactive; negative” under setting [6]; “inactive; negative” under setting [7]; “inactive; negative” (Test System: AMES SALMONELLA TYPHIMURIUM, Strain/Indicator: TA1537, Metabolic Activation: HAMSTER, LIVER, S-9, AROCLOR 1254, Method: PREINCUBATION); “inactive; negative” (Test System: AMES SALMONELLA TYPHIMURIUM, Strain/Indicator: TA1537, Metabolic Activation: NONE, Method: PREINCUBATION); “inactive; negative” (Test System: AMES SALMONELLA TYPHIMURIUM, Strain/Indicator: TA1537, Metabolic Activation: RAT, LIVER, S-9, AROCLOR 1254, Method: PREINCUBATION).
Regarding `CC(C)(C)OC(=O)CN=[N+]=[N-]`, the mutagenic call (Test System: AMES SALMONELLA TYPHIMURIUM, Strain/Indicator: TA100, Metabolic Activation: RAT, LIVER, S-9, PCB, Method: PREINCUBATION) is “active; positive”.
